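Exposure lasted 48 hours, with cells grown in 96-well plates and compounds tested at five concentrations. TGI denotes the concentration required for complete inhibition of growth.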
Experiments:
Test in all cases: DTP human tumour cell line panel, 48 h
EKVX NSCLC = test system: EKVX NSCLC
MDA-N = test system: MDA-N
CAKI-1 renal = test system: CAKI-1 renal
MDA-MB-435 = test system: MDA-MB-435
SN12C renal = test system: SN12C renal
MCF7 breast = test system: MCF7 breast
OVCAR-3 ovarian = test system: OVCAR-3 ovarian
DU-145 prostate = test system: DU-145 prostate
RPMI-8226 leukemia = test system: RPMI-8226 leukemia
SF-268 CNS = test system: SF-268 CNS

| Compound | TGI (EKVX NSCLC) | TGI (MDA-N) | TGI (CAKI-1 renal) | TGI (MDA-MB-435) | TGI (SN12C renal) | TGI (MCF7 breast) | TGI (OVCAR-3 ovarian) | TGI (DU-145 prostate) | TGI (RPMI-8226 leukemia) | TGI (SF-268 CNS) |
| --- | --- | --- | --- | --- | --- | --- | --- | --- | --- | --- |
| ClC1=NSSC1(Cl)Cl | > 100 µM | 62.1 µM | 34.8 µM | > 100 µM | 41.7 µM | > 100 µM | 64.5 µM | > 100 µM | 56 µM |  |
| CC(C)=CCC[C@@H](C)C1=C(O)C(N[C@H](C)c2ccccc2)=C(C)C(=O)C1=O | > 100 µM | 44.2 µM | 46.9 µM | > 62.3 µM | 53.2 µM | 17.9 µM | > 100 µM | 38.9 µM | 22.2 µM | > 64.3 µM |
| Clc1ccc(-c2cn3c(nc4ccccc43)c(-c3ccccc3)n2)cc1 | > 100 µM | > 100 µM | 32.1 µM | > 100 µM | > 100 µM | > 100 µM | > 82.4 µM | > 100 µM | > 100 µM | > 100 µM |
| Cc1sc(/N=C/C2=C(O)CC(C)(C)CC2=O)nc1-c1ccccc1 | > 100 µM | > 100 µM | > 100 µM | > 100 µM | > 100 µM | > 100 µM | > 100 µM | > 100 µM | > 100 µM | > 100 µM |
| COc1cc2c(c(OC)c1OC)C(=O)c1c(O)cc(C)c(OC)c1C2=O | > 100 µM | > 100 µM | > 100 µM | > 100 µM | > 100 µM | > 100 µM | > 100 µM | > 100 µM | > 100 µM | > 100 µM |
| S=C(NCc1ccccn1)N/N=C/c1ccccn1 | 2.44 µM | > 100 µM | 4.33 µM | > 100 µM | 9.25 µM | > 100 µM | > 100 µM | > 100 µM | < 0.01 µM | > 100 µM |
| CN(CCN)[C@H](CSSC[C@@H](c1ccccc1O)N(C)CCN)c1ccccc1O | 23.9 µM | 24.6 µM | 25.8 µM | 42.8 µM | 23.2 µM | > 52.7 µM | 28.6 µM | 33.1 µM | 43.2 µM | 33.7 µM |
| NC(=S)NNCC(=O)CC(O)(C(F)(F)F)C(F)(F)Cl (stereo not given) | > 100 µM | > 100 µM | > 100 µM | > 100 µM |  | > 100 µM | > 100 µM | > 100 µM | > 100 µM |  |
| O=CN1CCN(c2ccc3ccc(=O)[nH]c3n2)CC1 | > 100 µM | > 100 µM | > 100 µM | > 100 µM | > 100 µM | > 100 µM | > 100 µM | > 100 µM | > 100 µM | > 100 µM |
| OCCc1ccsc1-c1sc(-c2cc(CCO)c(-c3sc(-c4cc(CCO)c(-c5sccc5CCO)s4)cc3CCO)s2)cc1CCO | 2.91 µM | 4.29 µM | 2.95 µM | 3.39 µM |  | 1.95 µM | 2.72 µM | 4.53 µM | 2.32 µM | 2.14 µM |
| C[C@]12CC[C@H]3[C@@H](CC=C4C[C@@H](O)CC[C@@]43C)[C@@H]1C/C(=C\c1cccnc1)[C@@H]2O | 35.8 µM | > 100 µM |  | > 100 µM | 55.2 µM | 42.5 µM |  | 67.4 µM | > 100 µM |  |
| CC(=O)N[C@@H](Cc1ccc(O)cn1)C(=O)NCc1ccc(Cl)cc1 | > 100 µM | > 100 µM | > 100 µM | > 100 µM | > 100 µM | > 100 µM | > 100 µM | > 100 µM | > 100 µM |  |
| CSc1cc(Cl)c(C)cc1S(=O)(=O)NC(=O)NNc1ccc(C)cc1 | > 100 µM | > 100 µM | > 100 µM | > 100 µM | > 100 µM | > 100 µM | > 100 µM | > 100 µM |  | > 100 µM |
| CCOC(=O)c1ccc(N(CCOS(C)(=O)=O)CCOS(C)(=O)=O)cc1 | > 100 µM | > 100 µM | 29.1 µM | > 100 µM |  | > 100 µM | > 100 µM | 47 µM | > 100 µM | > 100 µM |
| O=C(/C=C/c1ccc(OCc2ccccc2)cc1)NCc1ccc(C(=O)NCCc2ccccc2)cc1 | > 100 µM | > 100 µM | > 100 µM | > 100 µM | > 100 µM | > 100 µM | > 100 µM | > 100 µM |  | > 100 µM |
| CCOC(=O)C(O)(CC1=NC(C(=O)OC)(C(=O)OC)C(c2cccc(C=O)c2)O1)C(=O)OCC (stereo not given) | > 100 µM | > 100 µM | > 100 µM | > 100 µM | > 100 µM | > 100 µM | > 100 µM | > 100 µM | > 100 µM |  |
| COC(=O)CN1CCN(c2cccc3c2CCCC3)CC1 | > 100 µM | > 100 µM | > 100 µM | > 100 µM | > 100 µM | 94.3 µM | 72.4 µM |  | 85.8 µM |  |
| O=C(O)CN1C(=O)c2ccc(NC(=O)C(=O)O)cc2S1(=O)=O | > 100 µM | > 100 µM | > 100 µM | > 100 µM | > 100 µM | > 100 µM |  | > 100 µM | > 100 µM | > 100 µM |

Reference: PubChem BioAssay (NCI)
